Here are results for 19 molecules from US8163771B2, “11 β-HSD1 modulators” (Exelixis, Inc., priority 2008, dated 2012).

Molecules are shown by their SMILES.

In the experiment the target is T1, recombinant human 11 β-HSD1 (Homo sapiens, UniProt P28845).
T1 construct: made in house; host or cells: E. coli
T1 sequence (P28845 whole entry): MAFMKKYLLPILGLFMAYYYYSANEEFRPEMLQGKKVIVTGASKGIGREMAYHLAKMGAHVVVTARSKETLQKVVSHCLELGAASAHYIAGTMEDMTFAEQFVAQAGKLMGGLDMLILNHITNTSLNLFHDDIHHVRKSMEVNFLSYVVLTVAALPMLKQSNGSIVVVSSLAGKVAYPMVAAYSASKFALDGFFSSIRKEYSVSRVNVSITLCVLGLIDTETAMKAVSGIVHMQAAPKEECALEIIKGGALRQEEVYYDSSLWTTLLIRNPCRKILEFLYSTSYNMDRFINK
The experiment can be described thus: 11 β-HSD1 SPA Assay (Scintillation Proximity Assay). Type of experiment: biochemical. The procedure, abridged: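 Scintillation proximity read-out of cortisol formed from 40 nM [3H]cortisone by purified recombinant human enzyme (30-100 nM, E. coli) with 1 mM NADPH, pH7.4, 2 hours at room temperature; beads with cortisol antibody and glycyrrhetinic acid stop the reaction, read next day. IC50 derived from inhibition normalised to background and maximal wells.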
In general terms: SPA uses beads or plates that emit light when radiolabelled molecules are held near them.
In the case of `CC(C)(Oc1ccc(C(F)(F)F)cc1)C(=O)N[C@H]1C[C@H]2CC[C@@H](C1)N2c1ccc(C(=O)NC2CC2)cn1` [Example 37, N-cyclopropyl-6-{3-endo-[(2-methyl-2-{[4-(trifluoromethyl)phenyl]oxy}propanoyl)amino]-8-azabicyclo[3.2.1]oct-8-yl}pyridine-3-carboxamide], the IC50 (in general, the concentration that gives 50% inhibition) is < 0.2 µM.
For `CC(C)(Oc1ccc(F)c(F)c1)C(=O)N[C@H]1C[C@H]2CC[C@@H](C1)N2c1ccc(C(=O)NCC(F)(F)F)cn1` [Example 78, 6-[3-endo-({2-[(3,4-difluorophenyl)oxy]-2-methylpropanoyl}amino)-8-azabicyclo[3.2.1]oct-8-yl]-N-(2,2,2-trifluoroethyl)pyridine-3-carboxamide] the value was < 0.2 µM; for `CC(C)(Oc1ccc(C(F)(F)F)cc1)C(=O)N[C@H]1C[C@H]2CC[C@@H](C1)N2c1ccc(S(N)(=O)=O)cn1` [Example 244, N-{8-[5-(aminosulfonyl)pyridin-2-yl]-8-azabicyclo[3.2.1]oct-3-endo-yl}-2-methyl-2-{[4-(trifluoromethyl)phenyl]oxy}propanamide], < 2 µM.
Then `CC(C)(Oc1ccc(C(C)(C)O)cc1Cl)C(=O)N[C@H]1C[C@H]2CC[C@@H](C1)N2c1ccc(C(=O)NCC(F)F)cn1` [Example 471, 6-[3-endo-({2-[2-chloro-4-(2-hydroxypropan-2-yl)phenoxy]-2-methylpropanoyl}amino)-8-azabicyclo[3.2.1]oct-8-yl]-N-(2,2-difluoroethyl)pyridine-3-carboxamide], with < 0.2 µM; and `CC(C)(Oc1ccc(Cl)cc1C(=O)O)C(=O)N[C@H]1C[C@H]2CC[C@@H](C1)N2c1ccc(C(=O)NCC(F)(F)F)cn1` [Example 375, 5-chloro-2-({2-methyl-1-oxo-1-[(8-{5-[(2,2,2-trifluoroethyl)carbamoyl]pyridin-2-yl}-8-azabicyclo[3.2.1]oct-3-endo-yl)amino]propan-2-yl}oxy)benzoic acid], with < 0.2 µM.
For `CC(C)(Oc1ccc2ccccc2c1Cl)C(=O)N[C@H]1C[C@H]2CC[C@@H](C1)N2c1ccc(C(=O)NCC(F)(F)F)cn1` [Example 348, 6-[3-endo-({2-[(1-chloronaphthalen-2-yl)oxy]-2-methylpropanoyl}amino)-8-azabicyclo[3.2.1]oct-8-yl]-N-(2,2,2-trifluoroethyl)pyridine-3-carboxamide] the value was < 0.2 µM; for `CC(C)(Oc1ccc(Cl)cc1C(F)F)C(=O)N[C@H]1C[C@H]2CC[C@@H](C1)N2c1ccc(C(=O)Nc2ccon2)cn1` [Example 404, 6-(3-endo-(2-(4-chloro-2-(difluoromethyl)phenoxy)-2-methylpropanamido)-8-azabicyclo[3.2.1]octan-8-yl)-N-(isoxazol-3-yl)nicotinamide], < 0.2 µM.
For the molecule `CC(C)(Oc1ccc(Cl)cc1Cl)C(=O)N[C@H]1C[C@H]2CC[C@@H](C1)N2c1cccc(S(C)(=O)=O)c1` [Example 156, 2-[(2,4-dichlorophenyl)oxy]-2-methyl-N-{8-[3-(methylsulfonyl)phenyl]-8-azabicyclo[3.2.1]oct-3-endo-yl}propanamide], the IC50 was < 2 µM.
Take `C[C@H](NC(=O)c1ccc(N2C3CCC2CC(NC(=O)C(C)(C)Oc2ccc(Cl)cc2F)C3)nc1)C(F)(F)F` (stereo partly drawn) [Example 435, 6-(3-endo-{[2-(4-chloro-2-fluorophenoxy)-2-methylpropanoyl]amino}-8-azabicyclo[3.2.1]oct-8-yl)-N-[(2S)-1,1,1-trifluoropropan-2-yl]pyridine-3-carboxamide]: the IC50 is < 0.2 µM.
As for `C[C@H](NC(=O)c1ccc(N2C3CCC2CC(NC(=O)C(C)(C)Oc2cc(F)c(F)cc2Cl)C3)nc1)C(F)(F)F` (stereo partly drawn) [Example 430, 6-(3-endo-{[2-(2-chloro-4,5-difluorophenoxy)-2-methylpropanoyl]amino}-8-azabicyclo[3.2.1]oct-8-yl)-N-[(2S)-1,1,1-trifluoropropan-2-yl]pyridine-3-carboxamide], the IC50 was < 0.2 µM.
Then `CC(C)NC(=O)c1ccc(N2[C@@H]3CC[C@H]2C[C@@H](NC(=O)C2(c4ccc(Cl)cc4)CC2)C3)nc1` [Example 12, 6-[3-endo-({[1-(4-chlorophenyl)cyclopropyl]carbonyl}amino)-8-azabicyclo[3.2.1]oct-8-yl]-N-(1-methylethyl)pyridine-3-carboxamide], with < 0.2 µM; and `C[C@H](NC(=O)c1ccc(N2C3CCC2CC(NC(=O)C(C)(C)Oc2ccc(F)c(Cl)c2Cl)C3)nc1)C(F)(F)F` (stereo partly drawn) [Example 437, 6-(3-endo-{[2-(2,3-dichloro-4-fluorophenoxy)-2-methylpropanoyl]amino}-8-azabicyclo[3.2.1]oct-8-yl)-N-[(2S)-1,1,1-trifluoropropan-2-yl]pyridine-3-carboxamide], with < 0.2 µM.
`CC(C)(Oc1ccc(F)cc1F)C(=O)N[C@H]1C[C@H]2CC[C@@H](C1)N2c1ccc(C(=O)NCC(F)F)cn1` [Example 443, N-(2,2-difluoroethyl)-6-(3-endo-{[2-(2,4-difluorophenoxy)-2-methylpropanoyl]amino}-8-azabicyclo[3.2.1]oct-8-yl)pyridine-3-carboxamide]: the IC50 was < 0.2 µM.
For the molecule `CS(=O)(=O)c1cccc(C2(C(=O)N[C@H]3C[C@H]4CC[C@@H](C3)N4c3ccc(C(N)=O)cn3)CC2)c1` [Example 311, 6-{3-endo-[({1-[3-(methylsulfonyl)phenyl]cyclo-propyl}carbonyl)amino]-8-azabicyclo[3.2.1]oct-8-yl}pyridine-3-carboxamide], the IC50 is < 0.2 µM.
For `CC(C)(Oc1cc(CC(=O)O)c(Cl)cc1Cl)C(=O)N[C@H]1C[C@H]2CC[C@@H](C1)N2c1ccc(C(=O)NCC(F)(F)F)cn1` [Example 444, [2,4-dichloro-5-({2-methyl-1-oxo-1-[(8-{5-[(2,2,2-trifluoroethyl)carbamoyl]pyridin-2-yl}-8-azabicyclo[3.2.1]oct-3-endo-yl)amino]propan-2-yl}oxy)phenyl]acetic acid] the value was < 0.2 µM.
Then `CC(C)(Oc1ccc(Cl)cc1C(F)F)C(=O)N[C@H]1C[C@H]2CC[C@@H](C1)N2c1ccc(C(=O)NCC(F)F)cn1` [Example 433, 6-[3-endo-({2-[4-chloro-2-(difluoromethyl)phenoxy]-2-methylpropanoyl}amino)-8-azabicyclo[3.2.1]oct-8-yl]-N-(2,2-difluoroethyl)pyridine-3-carboxamide], with < 0.2 µM; and `CS(=O)(=O)Nc1ccc(N2[C@@H]3CC[C@H]2C[C@@H](NC(=O)C2(c4ccc(Cl)cc4)CC2)C3)nc1` [Example 60, 1-(4-chlorophenyl)-N-(8-{5-[(methylsulfonyl)amino]pyridin-2-yl}-8-azabicyclo[3.2.1]oct-3-endo-yl)cyclopropanecarboxamide], with < 0.2 µM.
Consider `CC(C)(Oc1ccc(Cl)cc1C(F)(F)F)C(=O)N[C@H]1C[C@H]2CC[C@@H](C1)N2c1ccc(S(C)(=O)=O)cn1` [Example 263, 2-{[4-chloro-2-(trifluoromethyl)phenyl]oxy}-2-methyl-N-{8-[5-(methylsulfonyl)pyridin-2-yl]-8-azabicyclo[3.2.1]oct-3-endo-yl}propanamide], for which the IC50 is < 0.2 µM.
Then `CC(C)(Oc1ccc(Cl)cc1OC(F)(F)F)C(=O)N[C@H]1C[C@H]2CC[C@@H](C1)N2c1ccc(C(=O)NC2(CO)CC2)cn1` [Example 427, 6-[3-endo-({2-[4-chloro-2-(trifluoromethoxy)phenoxy]-2-methylpropanoyl}amino)-8-azabicyclo[3.2.1]oct-8-yl]-N-[1-(hydroxymethyl)cyclopropyl] pyridine-3-carboxamide], with < 0.2 µM.
